Source: patent US8486634B2, “Amplifying bisulfite-treated template” (Ambergen, Inc., priority 2007, dated 2013)

Biological target: T1, protein kinase Cα (PKCα) (Homo sapiens, UniProt P17252)
T1 construct: isolate and photo-release endogenous PKCα from the undiluted detergent fractionated HeLa cell extracts; endogenous in cells; host or cells: HeLa cells (ATCC)
Test: Phorbol ester (PMA) mediated PKCα sub-cellular translocation, measured by kinase activity after isolation with photocleavable antibodies
Type: cell-based
Settings: cultured HeLa cells stimulated with 200 nM PMA for 5 min, detergent-fractionated, relative distribution based on kinase activity, n=4
Method: FIG. 20. Phorbol ester (PMA) mediated protein kinase Cα (PKCα) sub-cellular translocation as measured by functional activity following isolation with photocleavable antibodies. Cultured HeLa cells were stimulated with 200 nM PMA for 5 min and detergent fractionated into the cytosol and membrane compartments prior to isolation and purification with the photocleavable antibodies.
Cultured HeLa cells (ATCC; Manassas, Va.) were stimulated for 5 min with 200 nM Phorbol-12-Myristate-13-Acetate (PMA; EMD Biosciences, Inc., San Diego, Calif.) and subsequently detergent fractionated into sub-cellular compartments according to reported procedures [Ramsby et al. (1994) Electrophoresis 15, 265-277; Ramsby & Makowski. (1999) Methods Mol Biol 112, 53-66; Chiang et al. (2000) J Biochem Biophys Methods 46, 53-68]. PMA is a potent activator of PKCα and is well known to cause translocation of the kinase from the cytosolic to the membrane sub-cellular compartments [Ross & Joyner. (1997) Endothelium 5, 321-332; Bazan & Rapoport. (1996) J Pharmacol Toxicol Methods 36, 87-95; Yazlovitskaya & Melnykovych. (1995) Cancer Lett 88, 179-183]. […]

**Q.** With `CCCCCCCCCCCCCC(=O)O[C@@H]1[C@@H](C)[C@@]2(O)[C@@H](C=C(CO)C[C@]3(O)C(=O)C(C)=C[C@@H]23)[C@@H]2C(C)(C)[C@]12OC(C)=O` [PMA, Phorbol-12-Myristate-13-Acetate] as the compound, how does the “PKCα distribution, membrane” value (baseline 21±2% membrane) read?
**A.** 84±3%

**Q.** And the “PKCα distribution, cytosol” value (baseline 79±7% cytosol)?
**A.** 16±4%
